This is an account of results in patent US8822517B2, “Arylosulfonamides for the treatment of CNS diseases” (Adamed SP. Z O.O., priority 2010, dated 2014).

Test [1] deals with T1, serotonine transporter (SERT) receptor (Homo sapiens, UniProt P31645).
T1 construct: expressed in transfected cells; host or cells: CHO cells
The test can be described thus: Binding assay SERT (h), [3H]imipramine, CHO cells. The note with it: read-out: SERT [%]. The gist of the method: (§1)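 Single-concentration test (1×10^−6 M). Total and non-specific binding were counted by scintillation, and their difference defines specific binding.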

The test system of test [2] is sigma σ receptor. The test can be described thus: Binding assay σ (non-selective), [3H]DTG, rat cerebral cortex. The note with it: percent inhibition of control specific binding; compounds tested at 1×10^−6 M. On the procedure: (§2) The specific ligand binding to the receptors is defined as the difference between the total binding and the nonspecific binding determined in the presence of an excess of so unlabelled ligand.
(§3) The specific Ligand binding to the receptor is defined as the difference between total and non-specific binding determined in the presence of an excess of unlabelled ligand. The compounds were tested at a concentration of 1×10^−6 M, and scintillation counting was the method of detection of ligand binding.

Test [3] has as its system adrenergic α1 receptor. Nature of the test: Binding assay α1 (non-selective), [3H]prazosin, rat cerebral cortex. The conditions noted are these: percent inhibition of control specific binding; compounds tested at 1×10^−6 M. The gist of the method:
as §1

The target of test [4] is T2, muscarinic M3 receptor (Homo sapiens, UniProt P20309).
T2 construct: expressed in transfected cells; host or cells: CHO cells
T2 sequence (P20309 whole entry): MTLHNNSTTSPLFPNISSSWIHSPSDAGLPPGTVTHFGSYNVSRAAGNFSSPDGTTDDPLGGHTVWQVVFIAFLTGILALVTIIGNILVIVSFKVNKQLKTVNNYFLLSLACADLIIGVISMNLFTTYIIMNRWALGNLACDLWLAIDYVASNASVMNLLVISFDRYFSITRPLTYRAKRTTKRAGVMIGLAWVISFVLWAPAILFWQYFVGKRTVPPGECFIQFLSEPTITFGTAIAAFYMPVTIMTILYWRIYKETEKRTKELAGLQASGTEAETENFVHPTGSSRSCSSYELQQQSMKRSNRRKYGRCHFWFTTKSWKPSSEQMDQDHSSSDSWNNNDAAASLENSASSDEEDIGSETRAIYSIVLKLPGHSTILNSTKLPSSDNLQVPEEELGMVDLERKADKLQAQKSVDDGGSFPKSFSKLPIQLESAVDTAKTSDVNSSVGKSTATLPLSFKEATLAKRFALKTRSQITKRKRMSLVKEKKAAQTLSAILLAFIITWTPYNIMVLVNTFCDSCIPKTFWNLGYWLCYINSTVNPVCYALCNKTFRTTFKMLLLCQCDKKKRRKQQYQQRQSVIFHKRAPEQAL
The test can be described thus: Binding assay M3 (h), [3H]4-DAMP, CHO cells. The conditions noted are these: read-out: M3 [%]. On the procedure:
as §2, §3

The target in test [5] is T3, serotoninergic receptor 5-HT2C (Homo sapiens, UniProt P28335).
T3 construct: expressed in transfected cells; host or cells: HEK-293 cells
T3 sequence (P28335 33-458): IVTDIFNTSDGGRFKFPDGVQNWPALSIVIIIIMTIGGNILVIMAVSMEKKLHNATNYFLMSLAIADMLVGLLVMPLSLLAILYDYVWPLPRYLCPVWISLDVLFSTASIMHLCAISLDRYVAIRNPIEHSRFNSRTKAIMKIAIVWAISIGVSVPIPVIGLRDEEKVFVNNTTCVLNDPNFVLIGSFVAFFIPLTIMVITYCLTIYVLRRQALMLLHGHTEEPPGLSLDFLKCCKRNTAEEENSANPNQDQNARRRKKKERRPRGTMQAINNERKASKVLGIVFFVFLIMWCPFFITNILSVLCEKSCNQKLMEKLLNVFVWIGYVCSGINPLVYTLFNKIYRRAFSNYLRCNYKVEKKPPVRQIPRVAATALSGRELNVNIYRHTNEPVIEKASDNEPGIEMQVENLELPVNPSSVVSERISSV
The test can be described thus: Binding assay 5-HT2C (h), [3H]mesulergine, HEK-293 cells. The note with it: read-out: 5-HT2C [%]. On the procedure: as §2, §3

The target of test [6] is dopaminergic D3 receptor (Homo sapiens, UniProt P35462). Nature of the test: Binding assay D3 (h), [3H]methyl-spiperone, CHO cells. More on the design: expressed in transfected cells; host or cells: CHO cells. The note with it: read-out: D3 [%]. The gist of the method: as §1
Chain of dopaminergic D3 receptor (P35462 whole entry): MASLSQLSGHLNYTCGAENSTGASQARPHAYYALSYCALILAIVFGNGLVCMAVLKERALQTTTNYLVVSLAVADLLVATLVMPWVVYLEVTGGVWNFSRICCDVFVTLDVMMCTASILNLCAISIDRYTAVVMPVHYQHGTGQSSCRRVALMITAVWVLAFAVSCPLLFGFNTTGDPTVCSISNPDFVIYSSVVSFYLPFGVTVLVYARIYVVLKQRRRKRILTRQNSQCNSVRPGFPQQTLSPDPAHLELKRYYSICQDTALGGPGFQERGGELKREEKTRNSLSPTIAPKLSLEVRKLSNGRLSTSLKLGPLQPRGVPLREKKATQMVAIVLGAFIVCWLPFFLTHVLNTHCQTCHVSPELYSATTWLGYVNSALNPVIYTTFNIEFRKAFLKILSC
Test [7] concerns the target serotoninergic 5-HT6 receptor (Homo sapiens, UniProt P50406). Nature of the test: Binding assay 5-HT6 (h), [3H]LSD, CHO cells. The note with it: read-out: 5-HT6. More on the design: expressed in transfected cells; host or cells: CHO cells. The gist of the method: as §1
Test [8] has as its target serotoninergic 5-HT7 receptor (Homo sapiens, UniProt P34969). Nature of the test: Binding assay 5-HT7 (h), [3H]LSD, CHO cells. On the set-up: expressed in transfected cells; host or cells: CHO cells. The conditions noted are these: read-out: 5-HT7. The gist of the method: as §1
The target of test [9] is T4, adrenergic α2C receptor (Homo sapiens, UniProt P18825).
T4 sequence (P18825 1-462): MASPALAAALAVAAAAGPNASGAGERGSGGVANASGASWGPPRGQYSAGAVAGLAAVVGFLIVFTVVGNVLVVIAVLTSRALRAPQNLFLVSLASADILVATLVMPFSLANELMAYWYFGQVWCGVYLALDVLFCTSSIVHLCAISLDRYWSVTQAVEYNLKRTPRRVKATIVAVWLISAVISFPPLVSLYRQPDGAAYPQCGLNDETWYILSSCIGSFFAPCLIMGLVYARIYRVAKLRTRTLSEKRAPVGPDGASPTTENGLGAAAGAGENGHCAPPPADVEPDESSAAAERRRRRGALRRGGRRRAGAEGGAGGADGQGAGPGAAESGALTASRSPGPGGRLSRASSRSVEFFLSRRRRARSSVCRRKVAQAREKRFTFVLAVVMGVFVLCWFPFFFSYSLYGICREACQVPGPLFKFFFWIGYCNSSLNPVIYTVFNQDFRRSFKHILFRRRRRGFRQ
The test can be described thus: Binding assay α2C (h), [3H]RX 821002, CHO cells. On the set-up: expressed in transfected cells; host or cells: CHO cells. The conditions noted are these: read-out: α2C [%]. On the procedure: as §2, §3

In test [10] the target is dopaminergic D2 receptor (Homo sapiens, UniProt P14416). The test can be described thus: Binding assay D2S (h), [3H]methyl-spiperone, HEK-293 cells. The conditions noted are these: read-out: D2 [%]. On the set-up: expressed in transfected cells; host or cells: HEK-293 cells. The gist of the method: as §1
Chain of dopaminergic D2 receptor (P14416 1-414 isoform P14416-2): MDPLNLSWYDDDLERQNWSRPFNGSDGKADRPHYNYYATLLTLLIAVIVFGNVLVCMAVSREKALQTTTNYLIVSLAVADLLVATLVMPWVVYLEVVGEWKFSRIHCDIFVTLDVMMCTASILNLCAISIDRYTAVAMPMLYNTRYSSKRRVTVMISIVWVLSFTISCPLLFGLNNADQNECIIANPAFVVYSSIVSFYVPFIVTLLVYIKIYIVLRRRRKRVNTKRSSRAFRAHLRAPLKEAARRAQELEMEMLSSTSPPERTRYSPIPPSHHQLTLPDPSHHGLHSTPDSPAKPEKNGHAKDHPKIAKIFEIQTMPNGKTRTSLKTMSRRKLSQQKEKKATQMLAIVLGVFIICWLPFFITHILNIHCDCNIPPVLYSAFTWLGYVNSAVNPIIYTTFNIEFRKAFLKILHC
The target of test [11] is T5, serotoninergic 5-HT1A receptor (Homo sapiens, UniProt P08908).
T5 sequence (P08908 1-422): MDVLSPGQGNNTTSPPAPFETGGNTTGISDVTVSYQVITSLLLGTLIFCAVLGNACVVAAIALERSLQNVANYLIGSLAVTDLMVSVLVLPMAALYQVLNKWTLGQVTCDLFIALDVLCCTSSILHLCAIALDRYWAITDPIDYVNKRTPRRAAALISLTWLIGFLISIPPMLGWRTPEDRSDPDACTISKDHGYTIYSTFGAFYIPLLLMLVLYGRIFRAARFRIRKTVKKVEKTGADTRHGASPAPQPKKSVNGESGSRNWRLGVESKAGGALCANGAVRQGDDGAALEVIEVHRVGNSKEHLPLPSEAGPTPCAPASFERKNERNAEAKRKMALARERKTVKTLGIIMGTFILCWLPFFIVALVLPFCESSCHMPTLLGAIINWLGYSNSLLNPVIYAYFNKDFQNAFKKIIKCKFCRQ
The test can be described thus: Binding assay 5-HT1A (h), [3H]8-OH-DPAT, HEK-293 cells. On the set-up: expressed in transfected cells; host or cells: HEK-293 cells. The note with it: read-out: 5-HT1A. The gist of the method:
as §1

Test [12] deals with serotoninergic 5-HT2A receptor (Homo sapiens, UniProt P28223). Nature of the test: Binding assay 5-HT2A (h), [3H]ketanserin, HEK-293 cells. On the set-up: expressed in transfected cells; host or cells: HEK-293 cells. The conditions noted are these: read-out: 5-HT2A. The gist of the method:
as §1

Test [13] concerns the target histaminergic H1 receptor (Homo sapiens, UniProt P35367). The test can be described thus: Binding assay H1 (h), [3H]pyrilamine, HEK-293 cells. More on the design: expressed in transfected cells; host or cells: HEK-293 cells. The note with it: read-out: H1 [%]. How it is done: as §2, §3

T1 sequence (P31645 whole entry): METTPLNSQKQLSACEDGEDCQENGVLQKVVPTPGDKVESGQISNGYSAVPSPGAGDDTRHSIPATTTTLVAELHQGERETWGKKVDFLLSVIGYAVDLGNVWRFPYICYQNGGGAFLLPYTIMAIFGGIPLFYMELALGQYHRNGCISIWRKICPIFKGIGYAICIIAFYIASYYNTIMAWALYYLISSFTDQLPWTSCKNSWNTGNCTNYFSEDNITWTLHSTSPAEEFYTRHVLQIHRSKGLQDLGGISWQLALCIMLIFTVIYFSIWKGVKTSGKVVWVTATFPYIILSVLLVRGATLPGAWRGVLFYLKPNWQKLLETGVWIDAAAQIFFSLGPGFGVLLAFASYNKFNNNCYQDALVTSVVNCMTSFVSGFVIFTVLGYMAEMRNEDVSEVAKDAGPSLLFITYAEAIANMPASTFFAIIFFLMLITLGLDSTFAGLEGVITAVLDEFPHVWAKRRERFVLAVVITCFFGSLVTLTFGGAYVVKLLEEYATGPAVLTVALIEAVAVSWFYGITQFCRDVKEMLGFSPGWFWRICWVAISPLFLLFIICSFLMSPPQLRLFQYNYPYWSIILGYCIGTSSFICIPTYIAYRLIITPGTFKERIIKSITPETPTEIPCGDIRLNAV
Chain of histaminergic H1 receptor (P35367 whole entry): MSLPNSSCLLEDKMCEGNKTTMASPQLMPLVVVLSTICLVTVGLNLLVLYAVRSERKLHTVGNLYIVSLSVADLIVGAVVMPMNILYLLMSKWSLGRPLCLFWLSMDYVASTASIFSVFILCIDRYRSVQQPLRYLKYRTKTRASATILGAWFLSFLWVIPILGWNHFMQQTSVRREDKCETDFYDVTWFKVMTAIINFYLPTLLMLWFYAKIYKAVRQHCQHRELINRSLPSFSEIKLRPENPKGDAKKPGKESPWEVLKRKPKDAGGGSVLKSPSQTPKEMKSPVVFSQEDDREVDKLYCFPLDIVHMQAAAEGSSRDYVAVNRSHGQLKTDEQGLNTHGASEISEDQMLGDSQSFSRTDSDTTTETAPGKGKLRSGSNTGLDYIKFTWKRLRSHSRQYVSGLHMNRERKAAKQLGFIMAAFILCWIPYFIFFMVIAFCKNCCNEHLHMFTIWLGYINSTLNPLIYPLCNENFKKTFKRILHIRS
Chain of serotoninergic 5-HT7 receptor (P34969 whole entry): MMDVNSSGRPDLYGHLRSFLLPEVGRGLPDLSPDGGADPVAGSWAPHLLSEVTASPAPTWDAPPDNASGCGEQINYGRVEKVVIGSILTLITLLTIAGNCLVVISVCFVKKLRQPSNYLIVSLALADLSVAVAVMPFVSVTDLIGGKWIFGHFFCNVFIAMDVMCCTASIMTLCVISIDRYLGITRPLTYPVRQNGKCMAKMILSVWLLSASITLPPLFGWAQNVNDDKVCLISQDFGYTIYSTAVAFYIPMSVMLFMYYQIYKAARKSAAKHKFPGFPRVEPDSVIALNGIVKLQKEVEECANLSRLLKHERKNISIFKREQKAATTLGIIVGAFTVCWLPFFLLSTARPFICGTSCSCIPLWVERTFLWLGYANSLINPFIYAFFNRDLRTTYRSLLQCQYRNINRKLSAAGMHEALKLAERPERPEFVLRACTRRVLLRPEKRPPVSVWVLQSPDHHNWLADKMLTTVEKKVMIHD
Chain of serotoninergic 5-HT6 receptor (P50406 whole entry): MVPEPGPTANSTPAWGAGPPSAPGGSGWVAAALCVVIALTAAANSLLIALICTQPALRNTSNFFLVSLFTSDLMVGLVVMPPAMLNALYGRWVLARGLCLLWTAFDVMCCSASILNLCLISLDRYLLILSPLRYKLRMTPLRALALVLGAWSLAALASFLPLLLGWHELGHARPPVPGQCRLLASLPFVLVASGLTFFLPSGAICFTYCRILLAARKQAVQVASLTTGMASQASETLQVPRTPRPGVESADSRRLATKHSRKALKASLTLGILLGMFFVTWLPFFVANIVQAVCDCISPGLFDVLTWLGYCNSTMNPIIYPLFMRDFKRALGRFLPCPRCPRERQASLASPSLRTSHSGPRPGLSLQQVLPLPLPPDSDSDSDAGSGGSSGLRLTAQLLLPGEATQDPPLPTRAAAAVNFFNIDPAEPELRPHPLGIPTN
Chain of serotoninergic 5-HT2A receptor (P28223 whole entry): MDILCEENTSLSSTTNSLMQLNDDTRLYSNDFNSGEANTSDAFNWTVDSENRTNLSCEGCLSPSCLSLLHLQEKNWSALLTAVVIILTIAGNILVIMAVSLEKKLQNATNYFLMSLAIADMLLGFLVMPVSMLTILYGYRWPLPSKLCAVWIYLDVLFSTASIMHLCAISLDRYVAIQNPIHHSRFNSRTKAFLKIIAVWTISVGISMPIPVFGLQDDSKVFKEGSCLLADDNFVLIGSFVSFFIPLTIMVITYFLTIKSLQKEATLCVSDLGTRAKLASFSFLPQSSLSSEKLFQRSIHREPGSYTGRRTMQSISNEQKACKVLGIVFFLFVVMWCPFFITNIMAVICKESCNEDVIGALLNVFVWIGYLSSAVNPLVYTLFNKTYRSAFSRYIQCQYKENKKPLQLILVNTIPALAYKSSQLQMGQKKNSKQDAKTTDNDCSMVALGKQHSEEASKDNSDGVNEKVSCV

On to `O=S(=O)(NCCCN1CCC(c2noc3cc(F)ccc23)CC1)c1cnc2ccccn12` [Compound 356, N-[3-[4-(6-Fluoro-1,2-benzoxazol-3-yl)piperidin-1-yl]propyl]imidazo[1,2-a]pyridine-3-sulphonamide], for which the inhibition at 1 µM in test [1] was found to be 11%; in test [4], 2%; in test [5] it was 83%; in [6], 96%; in test [7], 78%; in [8] it was 99%. Moreover, the inhibition at 1 µM stood at 96% in test [9]; 98% in test [10]; 95% in [11]; 99% in test [12]; 80% in test [13]. In test [2], the “σ [%]” value is recorded as 70%. Besides, the “α1 [%]” value in test [3] is reported as 101%.

Consider `O=c1[nH]c2cccc(N3CCN(CCCCNS(=O)(=O)c4cccc5ccccc45)CC3)c2[nH]1` [Compound 418, N-[4-[4-(2-oxo-1,3-dihydrobenzimidazol-4-yl)piperazin-1-yl]butyl]naphthalene-1-sulphonamide], for which the inhibition at 1 µM in test [1] came out at 5%; in [4] it was 4%; in test [5], 19%; in test [6] it was 99%; in [7] it was 5%; in test [8], 89%. Further, the inhibition at 1 µM in test [9] is 94%; in [10], 97%; in test [11], 98%; in test [12], 36%; in test [13], 55%. In addition, the “σ [%]” value in test [2] stood at 6%. Moreover, in test [3], the “α1 [%]” value is 98%.

`O=S(=O)(NCCCCN1CCC(c2noc3cc(F)ccc23)CC1)c1cc2ccccc2o1` [Compound 316, N-[4-[4-(6-Fluoro-1,2-benzoxazol-3-yl)piperidin-1-yl]butyl]benzofuran-2-sulphonamide]: the inhibition at 1 µM in [1] turned out to be 47%; in test [4], 28%; in test [5], 66%; in test [6], 95%; in test [7], 93%; in [8], 97%. The inhibition at 1 µM worked out at 94% in test [9]; 98% in [10]; 84% in [11]; 102% in test [12]; 85% in test [13]. Also, in test [2], the “σ [%]” value amounted to 81%. Besides, in [3], the “α1 [%]” value amounted to 90%.

`Cc1c(S(=O)(=O)NCCCCN2CCC(c3noc4cc(F)ccc34)CC2)sc2ccc(Cl)cc12` [Compound 315, 5-Chloro-N-[4-[4-(6-fluoro-1,2-benzoxazol-3-yl)piperidin-1-yl]butyl]-3-methylbenzothiophene-2-sulphonamide]: the inhibition at 1 µM was determined as 68% in test [1]; 24% in test [4]; 78% in test [5]; 97% in test [6]; 98% in test [7]; 98% in test [8]. Also, the inhibition at 1 µM in test [9] was found to be 93%; in [10], 99%; in [11], 70%; in [12] it was 102%; in [13], 90%. Also, in test [2], the “σ [%]” value stood at 72%. The “α1 [%]” value in test [3] is recorded as −13%.

In the case of `O=S(=O)(NCCCN1CCN(c2nsc3ccccc23)CC1)c1cccc2scnc12` [Compound 267, N-[3-[4-(1,2-Benzothiazol-3-yl)piperazin-1-yl]propyl]-1,3-benzothiazole-4-sulphonamide], the inhibition at 1 µM in test [1] worked out at 91%; in [4], 13%; in test [5], 78%; in test [6] it was 99%; in [7], 95%; in test [8], 100%. Also, the inhibition at 1 µM was 99% in test [9]; 100% in test [10]; 98% in [11]; 101% in [12]; 92% in test [13]. Besides, the “σ [%]” value in [2] is listed as 50%. In test [3], the “α1 [%]” value is reported as 97%.

Take `O=S(=O)(NCCCN1CCN(c2nsc3ccccc23)CC1)c1cc2ccccc2s1` [Compound 262, N-[3-[4-(1,2-Benzothiazol-3-yl)piperazin-1-yl]propyl]benzothiophene-2-sulphonamide]: the inhibition at 1 µM in test [1] turned out to be 87%; in test [4], 19%; in [5], 84%; in [6], 98%; in test [7] it was 93%; in [8] it was 99%. The inhibition at 1 µM was 94% in test [9]; 98% in [10]; 99% in test [11]; 102% in test [12]; 95% in [13]. In addition, the “σ [%]” value in test [2] is 51%. Further, in test [3], the “α1 [%]” value is 95%.

Regarding `O=c1[nH]c2cccc(N3CCN(CCCNS(=O)(=O)c4cccc(Cl)c4)CC3)c2[nH]1` [Compound 174, 3-Chloro-N-[3-[4-(2-oxo-1,3-dihydrobenzimidazol-4-yl)piperazin-1-yl]propyl]benzenesulphonamide], the inhibition at 1 µM in [1] is 11%; in test [4], 15%; in test [5] it was 0%; in [6], 96%; in test [7], 4%; in test [8] it was 92%. Further, the inhibition at 1 µM in [9] was 55%; in [10] it was 91%; in [11] it was 98%; in [12] it was -24%; in test [13] it was 25%. Besides, in test [2], the “σ [%]” value was −16%. For the same compound, the “α1 [%]” value in test [3] was found to be 86%.
